Source: patent publication US20260167615A1, “COMPOUNDS AND COMPOSITIONS AS GPR52 MODULATORS” (Neurocrine Biosciences, Inc., priority 2022, published 2026)
Read-outs that look alike come from different tables or passages of the source.

Biological target: recombinant human GPR52 (Homo sapiens, UniProt Q9Y2T5)
Test: HTRF cAMP assay, GPR52 activity (Example A)
Type: cell-based
Description: Compounds of Formula I were assessed for their ability to modulate GPR52 activity. HTRF CAMP assays were performed using a commercially available assay kit (CAMP Gs HiRange HTRF®, CisBio). Controls and compounds were solubilized in DMSO and 62.5 nanoliters of the diluted compounds were transferred into 384-well NBS assay plates via acoustic or precision low-volume dispensing. Compounds were further diluted to 1× with the addition of 20,000 cells per well. Flp-In™—CHO cells that stably express recombinant human GPR52 were used in the assay.
Cells were harvested with cell stripper and resuspended in stimulation buffer. After thirty minutes incubation at room temperature, detection reagents were added to each well. Plates were then incubated for an additional 30 minutes at room temperature. CAMP produced by the cells during the first incubation period competes with d2-labeled CAMP for binding to an anti-cAMP monoclonal antibody labeled with europium cryptate. The measured signal was inversely proportional to the concentration of cAMP produced by the cells and this signal was quantified using a PHERAstar® multi-mode plate reader.
Dose-response curves were generated from the HTRF counts that have been transformed based on a CAMP referenced curve, and then normalized to the positive control. EC50 values were obtained using a nonlinear regression curve-fitting program. […] The Emax (Table 13) is the maximum amount of cAMP (nM) produced by incubation of the cells with 10 μM or 31.6 μM of a test compound. The compound is defined by the top plateau of the sigmoid curve fit. The curve is then normalized to a control compound, in this case 4-(3-(3-fluoro-5-(trifluoromethyl)benzyl)-5-methyl-4,5-dihydro-1H-1,2,4-triazol-1-yl)-2-methylbenzamide (Tokumaru, K., et al., “Design, synthesis, and pharmacological evaluation of 4-azolyl-benzamide derivatives as novel GPR52 agonists”, Bioorganic & Medicinal Chemistry, Volume 25, Issue 12, June 2017, pages 3098-3115), and expressed as a percentage of the Emax of that control compound.

[1] = Flp-In-CHO cells expressing human GPR52, read-out: average EC50
[2] = average EC50 (n=1 to 15), Flp-In-CHO cells stably expressing recombinant human GPR52, cAMP HTRF, read-out: EC50 (N=)
[3] = maximum cAMP at 10 μM or 31.6 μM test compound, as percentage of Emax of control compound 4-(3-(3-fluoro-5-(trifluoromethyl)benzyl)-5-methyl-4,5-dihydro-1H-1,2,4-triazol-1-yl)-2-methylbenzamide
[4] = percentage of Emax of control compound

Chain of recombinant human GPR52 (Q9Y2T5 whole entry): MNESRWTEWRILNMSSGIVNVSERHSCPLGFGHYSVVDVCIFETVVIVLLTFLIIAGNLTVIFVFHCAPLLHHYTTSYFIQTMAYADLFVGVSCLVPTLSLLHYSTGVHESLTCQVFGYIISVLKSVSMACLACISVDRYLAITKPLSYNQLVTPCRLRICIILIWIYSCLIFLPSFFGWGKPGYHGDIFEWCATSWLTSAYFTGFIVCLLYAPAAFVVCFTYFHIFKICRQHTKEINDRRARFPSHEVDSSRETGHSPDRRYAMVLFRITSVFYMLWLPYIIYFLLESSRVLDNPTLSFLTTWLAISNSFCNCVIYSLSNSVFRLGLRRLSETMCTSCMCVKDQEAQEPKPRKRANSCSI

Row | SMILES | EC50 (comparison of position of the nitrogen in the pyridine ring relative to the oxygen linker, read-out: Activity EC50) [nM] | EC50 [1] [nM] | EC50 [2] [nM] | Emax [3] [%] | Emax [4] [%] | Emax (%) [3] [%]
1 | Cc1cc(-c2ccnc(Oc3ccc4c(c3)c(C)nn4C)c2)ccc1C(N)=O | 2040 |  |  |  |  | 
2 | CCc1cc(-c2cc(Oc3cnc4c(C)nn(C)c4c3)ccn2)ccc1C(N)=O [Example 1, 4-(4-((1,3-dimethyl-1H-pyrazolo[4,3-b]pyridin-6-yl)oxy)pyridin-2-yl)-2-ethylbenzamide] |  | 270 | 101 to 1000 | 106 | 106 | 
3 | CCc1cc(-c2cc(Oc3ccc4cnn(C)c4c3)ccn2)ccc1C(N)=O [Example 2, 2-ethyl-4-{4-[(1-methyl-1H-indazol-6-yl)oxy]pyridin-2-yl}benzamide] |  |  | 101 to 1000 | 98 |  | 
4 | Cc1cc(-c2cc(Oc3ccc4c(C)nn(C)c4c3)ccn2)ccc1C(N)=O [Example 4, 4-(4-((1,3-dimethyl-1H-indazol-6-yl)oxy)pyridin-2-yl)-2-methylbenzamide] |  | 83 | 25 to 100 |  | 106 | 103
5 | Cc1cc(-c2cc(Oc3ccc4c(cnn4C)c3)ccn2)ccc1C(N)=O [Example 5, 2-methyl-4-(4-((1-methyl-1H-indazol-5-yl)oxy)pyridin-2-yl)benzamide] |  |  | 101 to 1000 | 76 |  | 
6 | Cc1cc(-c2cc(Oc3ccc4nn(C)cc4c3)ccn2)ccc1C(N)=O [Example 6, 2-methyl-4-(4-((2-methyl-2H-indazol-5-yl)oxy)pyridin-2-yl)benzamide] |  |  | 101 to 1000 | 110 |  | 
7 | Cc1cc(-c2cc(Oc3cccc4c3cnn4C)ccn2)ccc1C(N)=O [Example 7, 2-methyl-4-(4-((1-methyl-1H-indazol-4-yl)oxy)pyridin-2-yl)benzamide] |  |  | 1000 to 2000 | 68 |  | 
8 | Cc1cc(-c2cc(Oc3ccc4ncn(C)c4c3)ccn2)ccc1C(N)=O [Example 8, 2-methyl-4-(4-((1-methyl-1H-benzo[d]imidazol-6-yl)oxy)pyridin-2-yl)benzamide] |  |  | 1000 to 2000 | 68 |  | 
9 | Cc1cc(-c2cccc(Oc3ccc4cnn(C)c4c3)n2)ccc1C(N)=O [Example 9, 2-methyl-4-(6-((1-methyl-1H-indazol-6-yl)oxy)pyridin-2-yl)benzamide] |  |  | 1000 to 2000 | 91 |  | 
10 | Cc1cc(-c2cncc(Oc3ccc4nn(C)cc4c3)n2)ccc1C(N)=O [Example 10, 2-methyl-4-(6-((2-methyl-2H-indazol-5-yl)oxy)pyrazin-2-yl)benzamide] |  |  | 101 to 1000 | 106 |  | 
11 | Cc1cc(-c2cncc(Oc3ccc4cnn(C)c4c3)n2)ccc1C(N)=O [Example 11, 2-methyl-4-(6-((1-methyl-1H-indazol-6-yl)oxy)pyrazin-2-yl)benzamide] |  |  | 101 to 1000 | 101 |  | 
12 | Cc1cc(-c2cc(Oc3cnc4cnn(C)c4c3)ccn2)ccc1C(N)=O [Example 12, 2-methyl-4-(4-((1-methyl-1H-pyrazolo[4,3-b]pyridin-6-yl)oxy)pyridin-2-yl)benzamide] |  |  | 101 to 1000 | 103 |  | 
13 | Cc1cc(-c2cc(Oc3ccn4nccc4c3)ccn2)ccc1C(N)=O [Example 13, 2-methyl-4-(4-(pyrazolo[1,5-a]pyridin-5-yloxy)pyridin-2-yl)benzamide] |  |  | 101 to 1000 | 97 |  | 
14 | Cc1cc(-c2nccc(Oc3ccc4cnn(C)c4c3)n2)ccc1C(N)=O [Example 14, 2-methyl-4-(4-((1-methyl-1H-indazol-6-yl)oxy)pyrimidin-2-yl)benzamide] |  |  | 101 to 1000 | 93 |  | 
15 | Cc1cc(-c2cc(N)nc(Oc3ccc4nn(C)cc4c3)c2)ccc1C(N)=O [Example 15, 4-(2-amino-6-((2-methyl-2H-indazol-5-yl)oxy)pyridin-4-yl)-2-methylbenzamide] |  |  | 1000 to 2000 | 72 |  | 
16 | CCc1cc(-c2cc(Oc3cnc4c(C)nn(C)c4c3)cc(N)n2)ccc1C(N)=O [Example 16, 4-(6-amino-4-((1,3-dimethyl-1H-pyrazolo[4,3-b]pyridin-6-yl)oxy)pyridin-2-yl)-2-ethylbenzamide] |  |  | 101 to 1000 | 107 |  | 

Row | SMILES | EC50 (comparison of position of the nitrogen in the pyridine ring relative to the oxygen linker, read-out: Activity EC50) [nM] | EC50 [1] [nM] | EC50 [2] [nM] | Emax [3] [%] | Emax [4] [%] | Emax (%) [3] [%]
17 | CCc1cc(-c2cc(Oc3cnc4cnn(C)c4c3)cc(N)n2)ccc1C(N)=O [Example 17, 4-(6-amino-4-((1-methyl-1H-pyrazolo[4,3-b]pyridin-6-yl)oxy)pyridin-2-yl)-2-ethylbenzamide] |  |  | 101 to 1000 | 102 |  | 
18 | CCc1cc(-c2cc(Oc3ccc4cnn(C)c4c3)cc(N)n2)ccc1C(N)=O [Example 18, 4-(6-amino-4-((1-methyl-1H-indazol-6-yl)oxy)pyridin-2-yl)-2-ethylbenzamide] |  |  | 101 to 1000 | 107 |  | 
19 | Cc1cc(-c2cc(Oc3ccc4c(C)nn(C)c4c3)cc(N)n2)ccc1C(N)=O [Example 19, 4-(6-amino-4-((1,3-dimethyl-1H-indazol-6-yl)oxy)pyridin-2-yl)-2-methylbenzamide] |  |  | 101 to 1000 | 90 |  | 
20 | CCc1cc(-c2cc(Oc3cc(F)c4cnn(C)c4c3)cc(N)n2)ccc1C(N)=O [Example 20, 4-(6-amino-4-((4-fluoro-1-methyl-1H-indazol-6-yl)oxy)pyridin-2-yl)-2-ethylbenzamide] |  |  | 101 to 1000 | 111 |  | 
21 | Cc1cc(-c2cc(Oc3ccc4cnn(C)c4c3)cc(N)n2)ccc1C(N)=O [Example 21, 4-(6-amino-4-((1-methyl-1H-indazol-6-yl)oxy)pyridin-2-yl)-2-methylbenzamide] |  |  | 101 to 1000 | 99 |  | 
22 | CCc1cc(-c2cc(Oc3cnc4c(c3)c(C)nn4C)cc(N)n2)ccc1C(N)=O [Example 22, 4-(6-amino-4-((1,3-dimethyl-1H-pyrazolo[3,4-b]pyridin-5-yl)oxy)pyridin-2-yl)-2-ethylbenzamide] |  |  | 101 to 1000 | 123 |  | 
23 | Cc1cc(-c2cc(Oc3cnc4c(c3)c(C)nn4C)cc(N)n2)ccc1C(N)=O [Example 23, 4-(6-amino-4-((1,3-dimethyl-1H-pyrazolo[3,4-b]pyridin-5-yl)oxy)pyridin-2-yl)-2-methylbenzamide] |  |  | 101 to 1000 | 107 |  | 
24 | CCc1cc(-c2cc(Oc3cnc4c(c3)c(C(F)(F)F)nn4C)cc(N)n2)ccc1C(N)=O [Example 24, 4-(6-amino-4-((1-methyl-3-(trifluoromethyl)-1H-pyrazolo[3,4-b]pyridin-5-yl)oxy)pyridin-2-yl)-2-ethylbenzamide] |  |  | 101 to 1000 | 110 |  | 
25 | Cc1cc(-c2cc(Oc3ccc4c(C)nn(C)c4c3)ccn2)ccc1C(N)=O [Example 25, 4-(4-((1,3-dimethyl-1H-indazol-6-yl)oxy)pyridin-2-yl)-2-methylbenzamide] |  | 83 | 25 to 100 | 103 |  | 
26 | CCc1cc(-c2cc(Oc3ccc4cnn(C)c4c3)cc3nccn23)ccc1C(N)=O [Example 26, 2-ethyl-4-(7-((1-methyl-1H-indazol-6-yl)oxy)imidazo[1,2-a]pyridin-5-yl)benzamide] |  |  | 25 to 100 | 75 |  | 
27 | CCc1cc(-c2cc(Oc3cnc4cnn(C)c4c3)ccn2)ccc1C(N)=O [Example 27, 2-ethyl-4-(4-((1-methyl-1H-pyrazolo[4,3-b]pyridin-6-yl)oxy)pyridin-2-yl)benzamide] |  |  | 101 to 1000 | 99 |  | 
28 | CCc1cc(-c2cc(Oc3cnc4c(C(F)(F)F)nn(C)c4c3)ccn2)ccc1C(N)=O [Example 29, 2-ethyl-4-(4-((1-methyl-3-(trifluoromethyl)-1H-pyrazolo[4,3-b]pyridin-6-yl)oxy)pyridin-2-yl)benzamide] |  |  | 101 to 1000 | 84 |  | 
29 | Cc1nn(C)c2cc(Oc3ccnc(-c4ccc(C(N)=O)c(C(F)(F)F)c4)c3)cnc12 [Example 30, 4-(4-((1,3-dimethyl-1H-pyrazolo[4,3-b]pyridin-6-yl)oxy)pyridin-2-yl)-2-(trifluoromethyl)benzamide] |  |  | 1000 to 2000 | 87 |  | 
30 | Cc1cc(-c2cccc(Oc3cnc4c(C)nn(C)c4c3)c2)ccc1C(N)=O [Example 31, 3′-((1,3-dimethyl-1H-pyrazolo[4,3-b]pyridin-6-yl)oxy)-3-methyl-[1,1′-biphenyl]-4-carboxamide] |  |  | 101 to 1000 | 88 |  | 
31 | CCc1cc(-c2cccc(Oc3cnc4c(C)nn(C)c4c3)c2)ccc1C(N)=O [Example 32, 3′-((1,3-dimethyl-1H-pyrazolo[4,3-b]pyridin-6-yl)oxy)-3-ethyl-[1,1′-biphenyl]-4-carboxamide] |  |  | 101 to 1000 | 103 |  | 
32 | Cn1ncc2ncc(Oc3ccnc(-c4ccc(C(N)=O)c(C(F)(F)F)c4)c3)cc21 [Example 33, 4-(4-((1-methyl-1H-pyrazolo[4,3-b]pyridin-6-yl)oxy)pyridin-2-yl)-2-(trifluoromethyl)benzamide] |  |  | 101 to 1000 | 90 |  | 
